Substitutions are numbered along the chain they refer to. Each block holds one molecule with its values, some of them ahead of it.
Assays:
Assay type in all cases: binding
PpnN (previously YgdH) [1] = molecular target: T1, PpnN (previously YgdH) (Escherichia coli, UniProt P0ADR8); assay: X-ray crystal structure […] Å
T1 construct: full length, N-terminal His6 tag, plasmid pCA24N-ppnN, expressed in E. coli BL21(DE3) ppnN::kan; homotetramer; domains PAG1 1-150, catalytic 151-329, PAG2 330-454
T1 sequence (P0ADR8 1-454): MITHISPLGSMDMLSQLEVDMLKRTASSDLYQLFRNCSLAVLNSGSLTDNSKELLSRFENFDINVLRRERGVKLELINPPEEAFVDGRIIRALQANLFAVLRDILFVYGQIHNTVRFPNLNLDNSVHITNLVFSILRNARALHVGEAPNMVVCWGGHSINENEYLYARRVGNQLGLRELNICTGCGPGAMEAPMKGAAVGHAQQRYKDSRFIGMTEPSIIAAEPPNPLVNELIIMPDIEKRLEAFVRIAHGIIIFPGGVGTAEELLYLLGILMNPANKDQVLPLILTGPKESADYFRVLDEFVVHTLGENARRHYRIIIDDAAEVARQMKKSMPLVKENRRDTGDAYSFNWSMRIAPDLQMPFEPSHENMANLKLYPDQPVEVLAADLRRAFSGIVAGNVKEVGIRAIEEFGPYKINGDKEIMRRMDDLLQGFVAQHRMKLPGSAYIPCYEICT

PpnN (previously YgdH) [2] = molecular target: T1, PpnN (previously YgdH); assay: X-ray crystal structure
PpnN (previously YgdH) [3] = molecular target: T2, PpnN (previously YgdH) (Escherichia coli, UniProt P0ADR8, E264A); assay: X-ray crystal structure […] Å
T2 construct: full length, N-terminal His6 tag, plasmid pCA24N-ppnN, expressed in E. coli BL21(DE3) ppnN::kan; homotetramer; domains PAG1 1-150, catalytic 151-329, PAG2 330-454
T2 sequence (P0ADR8 1-454 E264A): T1 sequence (P0ADR8 1-454) with E264A

SMILES: Nc1nc2c([C@@H]3O[C@H](COP(=O)(O)O)[C@@H](O)[C@H]3O)c[nH]c2c(=O)[nH]1 [9-deaza-GMP]
- X-ray crystal structure 3.4 Å (PpnN (previously YgdH) [1]; second dimer interface (two sites per tetramer), not the active site, with ppGpp): an elongated electron density was found into which 9dG could be modelled

- X-ray crystal structure (PpnN (previously YgdH) [2]; active sites of the three open monomers, carried over, GMP not added, modelled into density): guanine into the smaller densities
SMILES: Nc1nc2[nH]cnc2c(=O)[nH]1 [guanine]

SMILES: Nc1nc2c(ncn2[C@@H]2O[C@H](COP(=O)(O)OP(=O)(O)O)[C@@H](OP(=O)(O)OP(=O)(O)O)[C@H]2O)c(=O)[nH]1 [ppGpp]
- X-ray crystal structure 3.4 Å (PpnN (previously YgdH) [1]; allosteric alarmone site at dimer interface, four of four sites, with 9-deaza-GMP): All four canonical alarmone binding sites are occupied by ppGpp

SMILES: Nc1nc2c(ncn2[C@@H]2O[C@H](COP(=O)(O)OP(=O)(O)OP(=O)(O)O)[C@@H](OP(=O)(O)OP(=O)(O)O)[C@H]2O)c(=O)[nH]1 [pppGpp]
- X-ray crystal structure 3.5 Å (PpnN (previously YgdH) [3]; allosteric alarmone site at dimer interface, four of four sites, co-crystallised with GMP): all four alarmone sites are occupied by pppGpp
- X-ray crystal structure (PpnN (previously YgdH) [2]; allosteric alarmone site at dimer interface, three of four sites): pppGpp was bound to three out of four PpnN molecules

SMILES: O=P(O)(O)OC[C@H]1OC(O)[C@H](O)[C@@H]1O (stereo partly shown) [ribose 5-phosphate]
- X-ray crystal structure 3.5 Å (PpnN (previously YgdH) [3]; active site, four of four, from GMP added to the crystallisation): likely corresponding to the product, R5P
- X-ray crystal structure (PpnN (previously YgdH) [2]; active site of the partially open monomer, carried over, GMP not added, modelled into density): ribose-5-phosphate (R5P) into the bilobed density

Source: doi:10.1101/2025.04.13.648610v1, “Catalytic Mechanism and Differential Alarmone Regulation of a Conserved Stringent Nucleosidase” (biorxiv, 2025)
